Data as given in patent US20170043031A1, “IGF-1R ANTIBODY-DRUG-CONJUGATE AND ITS USE FOR THE TREATMENT OF CANCER” (PIERRE FABRE MEDICAMENT, priority 2014, published 2017).

Tested on: lysosome functions
Experiment: Inhibition of Abs degradation using lysosome inhibitor
Type: cell-based
Conditions: 10 μg/ml of Ab, 2 h at 37° C.
Protocol: In order to confirm that antibodies reached the lysosome were they are degraded, cells were treated or not with bafilomycine A1, a potent inhibitor of lysosome functions. Cells were then incubated with 10 μg/ml of Ab to be tested at 4° C., washed and incubated for 2 h at 37° C. The internalized Ab was detected after cell permeabilisation using a secondary anti-mouse IgG-Alexa 488 Ab.

SMILES: CO/C1=C\C(C)=C\[C@@H](C)[C@@H](O)[C@@H](C)C/C(C)=C/C=C/[C@H](OC)[C@@H]([C@@H](C)[C@@H](O)[C@H](C)[C@@]2(O)C[C@@H](O)[C@H](C)[C@@H](C(C)C)O2)OC1=O [bafilomycine A1]
- degradation of intracellular Ab: prevented the degradation of intracellular Ab
